Test results: US20070196407A1, “Alkoxyphenylcarboxylic acid derivatives” (priority 2004, published 2007)
Where “and” joins values, the source holds several entries; their conditions need not be identical. Identical values can stand only once.

Tests used:
[1] = test system: Aspergillus niger ATCC 6275; assay: MIC in the agar incorporation test; type: cell-based; settings: Sabouraud 4% glucose agar, 3 days at 28° C., unit not given, method gives agar concentrations in ppm
Protocol: (§1) Test solution: 1% stock solutions of all the test substances are prepared in a suitable solvent and diluted in serial dilutions as far as possible so that final concentrations of from 500 ppm to 10 ppm are obtained in the agar. Test principle: 0.3 ml of the particular dilution stage is mixed with 15 ml of still liquid nutrient medium. After solidification of the nutrient base, 10 μl of the test strains in a suitable organism dilution in 0.85% NaCl solution are applied point-wise to the agar medium: [table]

[2] = test system: Candida albicans ATCC 10231; assay: MIC in the agar incorporation test; type: cell-based; settings: Sabouraud 4% glucose agar, 3 days at 28° C., unit not given, method gives agar concentrations in ppm
Protocol: as §1

[3] = test system: Corynebacterium minutissimum ATCC 23348; assay: MIC in the agar incorporation test; type: cell-based; settings: unit not given, method gives agar concentrations in ppm
Protocol: as §1

[4] = test system: Escherichia coli ATCC 10536; assay: MIC in the agar incorporation test; type: cell-based; settings: 24 hours at 37° C., unit not given, method gives agar concentrations in ppm
Protocol: as §1

[5] = test system: Escherichia coli NCTC 8196; assay: MIC in the agar incorporation test; type: cell-based; settings: 24 hours at 37° C., unit not given, method gives agar concentrations in ppm
Protocol: as §1

[6] = test system: Klebsiella pneumoniae ATCC 4352; assay: MIC in the agar incorporation test; type: cell-based; settings: unit not given, method gives agar concentrations in ppm
Protocol: as §1

[7] = test system: Propionibacterium acnes ATCC 6919; assay: MIC in the agar incorporation test; type: cell-based; settings: unit not given, method gives agar concentrations in ppm
Protocol: as §1

[8] = test system: Proteus vulgaris ATCC 6896; assay: MIC in the agar incorporation test; type: cell-based; settings: unit not given, method gives agar concentrations in ppm
Protocol: as §1

[9] = test system: Pseudomonas aeruginosa ATCC 15442; assay: MIC in the agar incorporation test; type: cell-based; settings: 24 hours at 37° C., unit not given, method gives agar concentrations in ppm
Protocol: as §1

[10] = test system: Salmonella choleraesuis ATCC 9184; assay: MIC in the agar incorporation test; type: cell-based; settings: unit not given, method gives agar concentrations in ppm
Protocol: as §1

[11] = test system: Staphylococcus aureus ATCC 6538; assay: MIC in the agar incorporation test; type: cell-based; settings: 24 hours at 37° C., unit not given, method gives agar concentrations in ppm
Protocol: as §1

[12] = test system: Staphylococcus aureus ATCC 9144; assay: MIC in the agar incorporation test; type: cell-based; settings: 24 hours at 37° C., unit not given, method gives agar concentrations in ppm
Protocol: as §1

[13] = test system: Staphylococcus epidermidis ATCC 12228; assay: MIC in the agar incorporation test; type: cell-based; settings: unit not given, method gives agar concentrations in ppm
Protocol: as §1

[14] = test system: A. actinomycetemcomitans ATCC43718; assay: MIC against oral organisms in the serial dilution test; type: cell-based, Actinobacillus actinomycetemcomitans; settings: thioglycolate broth, 24 h aerobic with 10% CO2, unit not given, stock solutions in ppm (w/w)
From the text: (§2) Determination of the MIC Against Various Oral Organisms in the Serial Dilution Test
(§3) Medium: Thioglycolate broth with hemin and menadione • Columbia broth with hemin and menadione for P. gingivalis and P. nigrescens
(§4) Dilution medium: The appropriate amount of the substances was pipetted directly onto the medium.
(§5) Test organisms: Actinobacillus actinomycetemcomitans ATCC 43718 • Streptococcus gordonii ATCC 10558 • Streptococcus mutans ATCC 33402 • Actinomyces viscosus ATCC 43146 • Fusobacterium nucleatum subsp. polymorphum ATCC 10953 • Porphyromonas gingivalis ATCC 33277 • Prevotella nigrescens ATCC 33563
(§6) Incubation: 7-10 days at 37° C. anaerobic, or 24 h aerobic with 10% CO2for Streptococci and A. actinomycetemcomitans
(§7) Test solution: Stock solutions of all the test substances in ethanol comprising 1500 ppm (w/w) are used.
(§8) Bacteria are removed from blood agar plates using cotton-wool-tipped sticks and a suitable O.D. is established in the appropriate medium (McFarland 0.5); this solution is used undiluted for F. nucleatum and P. nigrescens and diluted 1:20 for the other strains. 0.1 ml of bacteria culture is added to 2 ml of each of the active substance solutions, and incubation is carried out as described above.

[15] = test system: S. gordonii ATCC10558; assay: as above; type: cell-based, Streptococcus gordonii; settings: thioglycolate broth, 24 h aerobic with 10% CO2, unit not given, stock solutions in ppm (w/w)
From the text: as §2, §3, §4, §5, §6, §7, §8

[16] = test system: S. mutans ATCC33402; assay: as above; type: cell-based, Streptococcus mutans; settings: thioglycolate broth, 24 h aerobic with 10% CO2, unit not given, stock solutions in ppm (w/w)
From the text: as §2, §3, §4, §5, §6, §7, §8

[17] = test system: A. viscosus ATCC43146; assay: as above; type: cell-based, Actinomyces viscosus; settings: thioglycolate broth, 7-10 days at 37° C. anaerobic, unit not given, stock solutions in ppm (w/w)
From the text: as §2, §3, §4, §5, §6, §7, §8

[18] = test system: F. nucleatum subsp. polymorphum ATCC10953; assay: as above; type: cell-based, Fusobacterium nucleatum subsp. polymorphum; settings: thioglycolate broth, 7-10 days at 37° C. anaerobic, unit not given, stock solutions in ppm (w/w)
From the text: as §2, §3, §4, §5, §6, §7, §8

[19] = test system: P. gingivalis ATCC3277; assay: as above; type: cell-based, Porphyromonas gingivalis; settings: Columbia broth with hemin and menadione, 7-10 days at 37° C. anaerobic, unit not given, stock solutions in ppm (w/w)
From the text: as §2, §3, §4, §5, §6, §7, §8

[20] = test system: P. nigrescens ATCC33563; assay: as above; type: cell-based, Prevotella nigrescens; settings: Columbia broth with hemin and menadione, 7-10 days at 37° C. anaerobic, unit not given, stock solutions in ppm (w/w)
From the text: as §2, §3, §4, §5, §6, §7, §8

[21] = test system: Actinomyces viscosus ATCC 43146; assay: Substantivity on hydroxyapatite and growth-inhibiting action; type: cell-based; settings: plates pretreated with synthetic saliva, incubated in ethanolic solution comprising 50 and 500 ppm; 24 hours at 37° C.; in comparison with an untreated control (FIGS. 1 and 2)
Protocol: Principle: apatite plates (dia. 10 mm) are placed in synthetic saliva (Deutsche Zahnärztliche Zeitschrift DZZ May 2002), rinsed in NaCl and then incubated in an ethanolic solution of test substances (II) and (III) comprising 50 and 500 ppm. The plates are then introduced into a Nunclon Surface titre plate (12 wells) and incubated for 24 hours at 37° C. in Caso nutrient medium which has been inoculated with Actinomyces viscosus ATCC 43146 (about 10^5/ml).

[22] = test system: biofilm of a defined mixed culture of gram+ and gram− oral organisms and a yeast (Candida albicans) on hydroxyapatite discs; assay: Activity in the biofilm model (in vitro supragingival plaque); type: cell-based; settings: 0.5% substance (II) in mouthwash formulation
From the text: Test of the Activity of 2-dodecyloxy-benzoic Acid (II) in the Biofilm Model
Principle: see Guggenheim et a/. (2001), “Validation of an in vitro biofilm model of supragingival plaque”, J. Dent Res. 80 (1)
Hydroxyapatite discs are pretreated with human saliva and a biofilm of a defined mixed culture of various gram+ and gram− oral organisms (Streptococci, Actinomyces sp., Veillonella & Fusobacterium sp. & others) and a yeast (Candida albicans) are allowed to grow on the hydroxyapatite. During the test period of 4 days, the discs are immersed, several times in all, in the below given application formulation of the substance (II),
and at the end the biofilm is harvested and the number of living cells is determined.

Structure (SMILES)	Minimum Inhibitory Concentration (MIC) [1]	Minimum Inhibitory Concentration (MIC) [2]	Minimum Inhibitory Concentration (MIC) [3]	Minimum Inhibitory Concentration (MIC) [4]	Minimum Inhibitory Concentration (MIC) [5]	Minimum Inhibitory Concentration (MIC) [6]	Minimum Inhibitory Concentration (MIC) [7]	Minimum Inhibitory Concentration (MIC) [8]	Minimum Inhibitory Concentration (MIC) [9]	Minimum Inhibitory Concentration (MIC) [10]	Minimum Inhibitory Concentration (MIC) [11]	Minimum Inhibitory Concentration (MIC) [12]	Minimum Inhibitory Concentration (MIC) [13]	MIC [14]	MIC [15]	MIC [16]	MIC [17]	MIC [18]	MIC [19]	MIC [20]	other results
CCCCCCCCCCCCOc1ccccc1C(=O)O [II, 2-dodecyloxy-benzoic acid]	>500	>500	15.63	>500	>500	>500	15.63	>500	>500	>500	31.25	31.25	15.63	>15	15	7.5	1.88	>15	7.5	>15	growth of Actinomyces viscosus after adsorption of the substance onto hydroxyapatite plates [21]: inhibition of the growth; number of living cells of the harvested biofilm (mean values) ([22]; discs immersed several times during 4 days, two independent tests): 1.2 × 10^5 CFU/disc and 1.7 × 10^5 CFU/disc; microbial count of the biofilm on the hydroxyapatite discs compared with the placebo formulation ([22]; test period of 4 days): marked reduction
CCCCCCCCCCCCCCCCOc1cc(C(=O)O)cc(C(=O)O)c1 [III, 5-hexadecyloxy-isophthalic acid]	>48	>48	24	>48	>48	>48	12	>48	>48	>48	24	24	12	15	≦0.94	3.75	1.88	>15	≦0.94	>15	growth of Actinomyces viscosus after adsorption of the substance onto hydroxyapatite plates [21]: inhibition of the growth
